Here are results for 29 molecules from US7998950B2, “Antiviral compounds” (Gilead Sciences, Inc., priority 2008, dated 2011).

The structures appear in SMILES notation.

As a reminder, the EC50 is the concentration that produces a half-maximal response.

The subject of one assay is HIV-IIIb. The assay is described as follows: Antiviral assay in MT-2 cells infected with HIV-IIIb. The format is cell-based. The following applies: Human immunodeficiency virus 1, IIIB, MT2, 120 h, MT-2 cells infected with HIV-IIIb, m.o.i. 0.01, 10% FBS, 5 days at 37° C., CellTiter-Glo chemiluminescence; read-out: EC50 in MT-2 cells. Background: Cellular ATP, detected with luciferase, serves as a proxy for viable cell number.
As to `N#CCCNC(=O)c1c(O)c2ncc(Cc3ccc(F)cc3)c3c2n(c1=O)CC(F)(F)CN3` [A-9], the EC50 is 4 nM.
Turning to `COCCNC(=O)c1c(O)c2ncc(Cc3ccc(F)cc3)c3c2n(c1=O)CC(F)(F)CN3` [A-10], the EC50 was found to be 4 nM.
`O=C(NCC1(O)CC1)c1c(O)c2ncc(Cc3ccc(F)cc3)c3c2n(c1=O)CC(F)(F)CN3` [A-11]: the EC50 is 3.5 nM.
On to `CCNC(=O)c1c(O)c2ncc(Cc3ccc(F)cc3)c3c2n(c1=O)CC(F)(F)CN3` [A-12], for which the EC50 was determined as 3 nM.
Take `C[C@@H](CO)NC(=O)c1c(O)c2ncc(Cc3ccc(F)cc3)c3c2n(c1=O)CC(F)(F)CN3` [A-13]: the EC50 was 6.5 nM.
As for `CC(C)(O)CNC(=O)c1c(O)c2ncc(Cc3ccc(F)cc3)c3c2n(c1=O)CC(F)(F)CN3` [A-14], the concentration giving a half-maximal response (EC50) came out at 7 nM.
Take `O=C(NCCCO)c1c(O)c2ncc(Cc3ccc(F)cc3)c3c2n(c1=O)CC(F)(F)CN3` [A-15]: the EC50 stood at 4 nM.
As for `N#CCCCNC(=O)c1c(O)c2ncc(Cc3ccc(F)cc3)c3c2n(c1=O)CC(F)(F)CN3` [A-17], the EC50 was found to be 2.5 nM.
On the same count and under the same terms, the value for `O=C(NC1CC(O)C1)c1c(O)c2ncc(Cc3ccc(F)cc3)c3c2n(c1=O)CC(F)(F)CN3` (centres unmarked) [A-18] was 7 nM.
The same measure, in the same setting: as for `CNC(=O)c1c(O)c2ncc(Cc3ccc(F)cc3)c3c2n(c1=O)CC(CO)O3` (centres unmarked) [A-25], the figure is 5.5 nM; as for `O=C(NCCO)c1c(O)c2ncc(Cc3ccc(F)cc3)c3c2n(c1=O)CC(CO)O3` (centres unmarked) [A-26], 16 nM; as for `COCCNC(=O)c1c(O)c2ncc(Cc3ccc(F)cc3)c3c2n(c1=O)CC(CO)O3` (centres unmarked) [A-27], 4 nM.
On the same count and under the same terms, the value for `O=C(NCCCN1CCCC1)c1c(O)c2ncc(Cc3ccc(F)cc3)c3c2n(c1=O)CC(CO)O3` (centres unmarked) [A-28] was 51 nM.
`COCC1Cn2c(=O)c(C(=O)NCCO)c(O)c3ncc(Cc4ccc(F)cc4)c(c32)O1` (centres unmarked) [A-31]: the half-maximal effective concentration (EC50) stood at 1.5 nM.
On the same count and under the same terms, the value for `CNC(=O)c1c(O)c2ncc(Cc3ccc(F)cc3)c3c2n(c1=O)CC(C(=O)N(C)C)O3` (centres unmarked) [A-35] was 5.7 nM; that for `CNC(=O)c1c(O)c2ncc(Cc3ccc(F)cc3)c3c2n(c1=O)C[C@H](C(=O)NC)O3` [A-50] was 6.8 nM; that for `CNC(=O)c1c(O)c2ncc(Cc3ccc(F)cc3)c3c2n(c1=O)C[C@@H](C(=O)NC)O3` [A-65] was 6.3 nM.
For `CNC(=O)c1c(O)c2ncc(Cc3ccc(F)cc3)c3c2n(c1=O)C[C@@H](CO)O3` [A-67], the EC50 worked out at 1.7 nM.
Still for that read-out and setting: as for `CNC(=O)c1c(O)c2ncc(Cc3ccc(F)cc3)c3c2n(c1=O)C[C@H](CO)O3` [A-69], the figure is 4 nM; as for `CNC(=O)C1=Cn2c(=O)c(C(=O)NC)c(O)c3ncc(Cc4ccc(F)cc4)c(c32)O1` [A-82], 8 nM.
With `CNC(=O)c1c(O)c2ncc(Cc3ccc(F)cc3)c3c2n(c1=O)C=C(C(=O)N1CCOCC1)O3` [A-83], the concentration giving a half-maximal response (EC50) came out at 37 nM.
For the molecule `CNC(=O)c1c(O)c2ncc(Cc3ccc(F)cc3)c3c2n(c1=O)C=C(C(=O)NC1CC1)O3` [A-85], the EC50 is 4 nM.
As for `CNC(=O)C1=Cn2c(=O)c(C(=O)NCCOC)c(O)c3ncc(Cc4ccc(F)cc4)c(c32)O1` [A-87], the 50% effective concentration (EC50) was 3.6 nM.
On to `CNC(=O)C1=Cn2c(=O)c(C(=O)NCCC#N)c(O)c3ncc(Cc4ccc(F)cc4)c(c32)O1` [A-88], for which the EC50 is 18 nM.
With `CNC(=O)C1=Cn2c(=O)c(C(=O)NCCO)c(O)c3ncc(Cc4ccc(F)cc4)c(c32)O1` [A-89], the concentration for a half-maximal effect (EC50) was found to be 23 nM.
For `CCNC(=O)C1=Cn2c(=O)c(C(=O)NC)c(O)c3ncc(Cc4ccc(F)cc4)c(c32)O1` [A-90], the EC50 was 2.9 nM.
Take `CNC(=O)c1c(O)c2ncc(Cc3ccc(F)cc3)c3c2n(c1=O)C=C(C(=O)N1CC(F)(F)C1)O3` [A-92]: the EC50 stood at 21 nM.

Still in this assay, the particulars now being: Human immunodeficiency virus 1, IIIB, MT2, 120 h, read-out: EC50 in MT-2 cells (nM).
Regarding `CNC(=O)c1c(O)c2ncc(Cc3ccc(F)cc3)c3c2n(c1=O)C=C(C(=O)N(C)C)O3` [A-81], the EC50 was found to be 10.5 nM.

The assay is the same for the next values; noted with them: MT-2 cells infected with HIV-IIIb, m.o.i. 0.01, 10% FBS, 5 days at 37° C., CellTiter-Glo chemiluminescence; read-out: EC50 in MT-2 cells.
`CCN(CC)C(=O)C1=Cn2c(=O)c(C(=O)NC)c(O)c3ncc(Cc4ccc(F)cc4)c(c32)O1` [A-91]: the 50% effective concentration (EC50) was determined as 10 nM.
